The text below walks through data of US12559454B2, “Benzenesulfonamide derivatives and uses thereof” (2692372 Ontario, Inc., priority 2019, dated 2026).

What is called IC50 is the point on the concentration scale where inhibition reaches its midpoint.

The subject of assay [1] is K562 cells. Kind of assay: CellTiter-Blue cell viability, K562. The assay is classed as cell-based. Conditions: Homo sapiens, 72 hrs exposure. On the procedure: (§1) Anti-cancer efficacy of exemplary compounds of this application was assessed in vitro in different cancer cell lines. Cell viability was examined following treatment at various concentration of inhibitor (0.097656-50 μM) using a cell Titer-Blue cell viability assay. 1×10^4 cells (NHF, MV4-11, K562 and MOLM-13 cells)/well were plated in 96-well assay plates in culture medium. All cells were grown in DMEM, IMDM and RPMI-1640 supplemented with 10% FBS. After 24 hrs, test compounds and vehicle controls were added to appropriate wells so the final volume was 100 μl in each well. The cells were cultured for the desired test exposure period (72 hrs) at 37° C. and 5% CO2. The assay plates were removed from 37° C. incubator and 20 μl/well of CellTiter-Blue® Reagent was added. The plates were incubated using standard cell culture conditions for 1-4 hours and the plates were shaken for 10 seconds and record fluorescence at 560/590 nm.
Background: Resazurin is reduced to fluorescent resorufin, in cell work by metabolically active cells.

Assay [2] concerns MV4-11 cells. Kind of assay: CellTiter-Blue cell viability, MV-4-11. In kind it is cell-based. Conditions: Homo sapiens, 72 hrs exposure. On the procedure: as §1
The test system of assay [3] is tubulin. The assay is described as follows: Tubulin polymerization assay. The assay is classed as biochemical. To be noted: for % Inhibition: Vmax normalized to tubulin only control; for % D.O.P.: degree of polymerization relative to tubulin control. On the procedure: A96-well half-area clear flat-bottom microplate (Corning® #3697) was pre-heated in a plate reader (Cytation 3, BioTek) at 37° C. for 15 minutes prior to the start of each assay. Tubulin polymerization buffer (80 mM PIPES pH 6.9, 2 mM MgCl2, 0.5 mM EGTA, 15% glycerol, 1 mM GTP) was prepared from stock solutions and placed on ice. Inhibitors were prepared to M concentrations in buffer (80 mM PIPES pH 6.9, 2 mM MgCl2, 0.5 mM EGTA, 5% DMSO) from DMSO stock solutions. After the assay plate was pre-warmed, 10 μL of inhibitor or buffer control was added to selected wells. Every assay contained a tubulin only negative control for normalization of data, and a batabulin positive control. The assay plate was incubated at 37° C. for 3 minutes. During this time, a frozen aliquot of tubulin (10 mg/mL) in buffer (80 mM PIPES pH 6.9, 2 mM MgCl2, 0.5 mM EGTA) was defrosted by placing in a room temperature water bath. Once thawed, 200 μL of tubulin was mixed with 420 μL ice cold tubulin polymerization buffer (3 mg/mL tubulin in 80 mM PIPES, pH 6.9, 2 mM MgCl2, 0.5 mM EGTA, 1 mM GTP, 10.2% glycerol). To a 96-well plate on ice, aliquots of 100 μL tubulin was added to each well. From this plate, 90 μL of tubulin was immediately pipetted into all sample wells of the warmed assay plate using a multi-channel pipette. The assay plate was immediately put in the reader at 37° C. and shook for 5 s with orbital shaking at medium speed. The reader recorded the absorbance at 340 nm every 15 s for 30 min.
The resulting absorbance curves were normalized by subtracting each data point by the absorbance at time 0.
The largest change in absorbance over the assay time course was also recorded and related to the tubulin control as the % degree of polymerization (% D.O.P.).

Assay [4] concerns MOLM-13 cells. The assay is described as follows: CellTiter-Blue cell viability, MOLM-13. Conditions: Homo sapiens, 72 hrs exposure. The assay is classed as cell-based. On the procedure:
as §1

Turning to `COC(=O)c1ccc(NS(=O)(=O)c2c(F)c(F)c(F)c(F)c2OC2CC2)cc1` [Compound I-102, methyl 4-((2-cyclopropoxy-3,4,5,6-tetrafluorophenyl)sulfonamido)benzoate], the IC50 was more than 10 µM in assay [1] and 0.1 to 1 µM in assay [2].
For the compound `COc1ccc(NS(=O)(=O)c2c(F)c(F)c(F)c(F)c2OCCF)cc1F` [Compound I-66, 2,3,4,5-tetrafluoro-N-(3-fluoro-4-methoxyphenyl)-6-(2-fluoroethoxy)benzenesulfonamide], in assay [3], the “% Inhibition” value is “B (10-20%)” and the “% D.O.P.” value is “B (< 85%)”. This compound also returned an IC50 in assay [4] of 1 to 10 µM. This compound also showed an IC50 in assay [2] of 0.1 to 1 µM.
As for `O=S(=O)(Nc1ccc(F)cc1F)c1c(F)c(F)c(F)c(F)c1OC1CC1` [Compound I-97, 2-cyclopropoxy-N-(2,4-difluorophenyl)-3,4,5,6-tetrafluorobenzenesulfonamide], in assay [2], the 50% inhibitory concentration (IC50) is more than 10 µM.
For `CCOc1c(F)c(F)c(F)c(F)c1S(=O)(=O)Nc1ccc(OC)c(F)c1` [Compound I-85, 2-ethoxy-3,4,5,6-tetrafluoro-N-(3-fluoro-4-methoxyphenyl)benzenesulfonamide], in assay [3], the “% Inhibition” value is reported as “A (<10%)” and the “% D.O.P.” value is listed as “A (>85%)”. In assay [4], the IC50 was not above 0.1 µM.
`O=S(=O)(Nc1ccc(F)cc1)c1c(F)c(F)c(F)c(F)c1OC1CC1` [Compound I-96, 2-cyclopropoxy-3,4,5,6-tetrafluoro-N-(4-fluorophenyl)benzenesulfonamide]: in assay [3], the “% Inhibition” value is given as “A (<10%)” and the “% D.O.P.” value is reported as “A (>85%)”. In assay [2], the IC50 is 0.1 to 1 µM.
On to `O=S(=O)(Nc1cc(F)c(F)cc1F)c1c(F)c(F)c(F)c(F)c1OC1CC1` [Compound I-98, 2-cyclopropoxy-3,4,5,6-tetrafluoro-N-(2,4,5-trifluorophenyl)benzenesulfonamide], for which the IC50 in assay [2] was more than 10 µM.
Take `COc1ccc(CNc2c(F)c(F)c(F)c(F)c2S(=O)(=O)Nc2ccc(OC)c(F)c2)cc1` [Compound I-87, 2,3,4,5-tetrafluoro-N-(3-fluoro-4-methoxyphenyl)-6-((4-methoxybenzyl)amino)benzenesulfonamide]: in assay [3], the “% Inhibition” value is “A (<10%)” and the “% D.O.P.” value is listed as “A (>85%)”.
With `COc1ccc(NS(=O)(=O)c2c(F)c(F)c(F)c(F)c2OC(F)F)cc1F` [Compound I-65, 2-(difluoromethoxy)-3,4,5,6-tetrafluoro-N-(3-fluoro-4-methoxyphenyl)benzenesulfonamide], in assay [3], the “% Inhibition” value is “C (>20%)” and the “% D.O.P.” value is “B (< 85%)”. In assay [4], this compound showed an IC50 of 0.1 to 1 µM. Besides, the IC50 in assay [2] is not above 0.1 µM.
For the compound `COc1ccc(NS(=O)(=O)c2c(N)c(F)c(F)c(F)c2F)cc1F` [Compound I-88, 2-amino-3,4,5,6-tetrafluoro-N-(3-fluoro-4-methoxyphenyl)benzenesulfonamide], in assay [3], the “% Inhibition” value is recorded as “A (<10%)” and the “% D.O.P.” value is recorded as “A (>85%)”.
As to `O=S(=O)(Nc1cccc(Cl)c1)c1c(F)c(F)c(F)c(F)c1OC1CC1` [Compound I-99, N-(3-chlorophenyl)-2-cyclopropoxy-3,4,5,6-tetrafluorobenzenesulfonamide], the IC50 in assay [1] and in assay [2] was more than 10 µM each time.
With `COc1ccc(CN(Cc2ccc(OC)cc2)S(=O)(=O)c2c(O)c(F)c(F)c(F)c2F)cc1` [Compound I-82, 2,3,4,5-tetrafluoro-6-hydroxy-N,N-bis(4-methoxybenzyl)benzenesulfonamide], in assay [3], the “% Inhibition” value was “B (10-20%)” and the “% D.O.P.” value is on record as “A (>85%)”.
As to `CN(C)S(=O)(=O)c1c(F)c(F)c(F)c(F)c1OCC(F)(F)F` [Compound I-10, 2,3,4,5-tetrafluoro-N,N-dimethyl-6-(2,2,2-trifluoroethoxy)benzenesulfonamide], the IC50 in assay [1] is more than 10 µM; in assay [2], 1 to 10 µM.
Turning to `COc1c(F)c(F)c(F)c(F)c1S(=O)(=O)N(C)C` [Compound I-4, 2,3,4,5-tetrafluoro-6-methoxy-N,N-dimethylbenzenesulfonamide], the IC50 in assay [2] is 1 to 10 µM.
For the compound `CN(C)S(=O)(=O)c1c(F)c(F)c(F)c(F)c1OCCF` [Compound I-125, 2,3,4,5-tetrafluoro-6-(2-fluoroethoxy)-N,N-dimethylbenzenesulfonamide], the results for the 50% inhibitory concentration (IC50) in assay [1] and in assay [2] were more than 10 µM and 1 to 10 µM, respectively.
For `N#Cc1ccc(NS(=O)(=O)c2c(F)c(F)c(F)c(F)c2OC2CC2)cc1` [Compound I-101, N-(4-cyanophenyl)-2-cyclopropoxy-3,4,5,6-tetrafluorobenzenesulfonamide], the IC50 in assay [2] was more than 10 µM.
For `COc1ccc(NS(=O)(=O)c2c(O)c(F)c(F)c(F)c2F)cc1F` [Compound I-63, 2,3,4,5-tetrafluoro-N-(3-fluoro-4-methoxyphenyl)-6-hydroxybenzenesulfonamide], the “% Inhibition” value in assay [3] is given as “A (<10%)”. In assay [3], the “% D.O.P.” value is recorded as “A (>85%)”. For the same compound, the IC50 in assay [1] and in assay [2] was more than 10 µM throughout.
Turning to `N#Cc1cccc(NS(=O)(=O)c2c(F)c(F)c(F)c(F)c2OC2CC2)c1` [Compound I-100, N-(3-cyanophenyl)-2-cyclopropoxy-3,4,5,6-tetrafluorobenzenesulfonamide], the IC50 in assay [1] and in assay [2] was more than 10 µM each time.
As for `O=S(=O)(Nc1cccc2ccccc12)c1c(F)c(F)c(F)c(F)c1OC1CC1` [Compound I-104, 2-cyclopropoxy-3,4,5,6-tetrafluoro-N-(naphthalen-1-yl)benzenesulfonamide], the IC50 in assay [2] was more than 10 µM.
Take `CN(C)S(=O)(=O)c1c(O)c(F)c(F)c(F)c1F` [Compound I-3, 2,3,4,5-tetrafluoro-6-hydroxy-N,N-dimethylbenzenesulfonamide]: the IC50 in assay [1] and in assay [2] was more than 10 µM each time.
For `CNc1c(F)c(F)c(F)c(F)c1S(=O)(=O)Nc1ccc(OC)c(F)c1` [Compound I-86, 2,3,4,5-tetrafluoro-N-(3-fluoro-4-methoxyphenyl)-6-(methylamino)benzenesulfonamide], in assay [3], the “% Inhibition” value is recorded as “A (<10%)” and the “% D.O.P.” value is listed as “A (>85%)”. In addition, the IC50 in assay [2] is 0.1 to 1 µM.
Take `C#CCN(c1ccc(OC)c(F)c1)S(=O)(=O)c1c(F)c(F)c(F)c(F)c1OC1CC1` [Compound I-124, 2-cyclopropoxy-3,4,5,6-tetrafluoro-N-(3-fluoro-4-methoxyphenyl)-N-(prop-2-yn-1-yl)benzenesulfonamide]: the IC50 in assay [1] and in assay [2] was 1 to 10 µM each time.
On to `COc1ccc(NS(=O)(=O)c2c(F)c(F)c(F)c(F)c2OC2CCC2)cc1F` [Compound I-69, 2-cyclobutoxy-3,4,5,6-tetrafluoro-N-(3-fluoro-4-methoxyphenyl)benzenesulfonamide], for which, in assay [3], the “% Inhibition” value is “A (<10%)” and the “% D.O.P.” value is on record as “A (>85%)”. Also, the IC50 in assay [2] was 0.1 to 1 µM.
In assay [2], `O=S(=O)(Nc1ccc(Oc2ccccc2)cc1)c1c(F)c(F)c(F)c(F)c1OC1CC1` [Compound I-103, 2-cyclopropoxy-3,4,5,6-tetrafluoro-N-(4-phenoxyphenyl)benzenesulfonamide] yielded a concentration for half-maximal inhibition (IC50) of more than 10 µM.
With `COc1ccc(NS(=O)(=O)c2c(F)c(F)c(F)c(F)c2OC2CCCC2)cc1F` [Compound I-70, 2-(cyclopentyloxy)-3,4,5,6-tetrafluoro-N-(3-fluoro-4-methoxyphenyl)benzenesulfonamide], in assay [3], the “% Inhibition” value was “A (<10%)” and the “% D.O.P.” value is “A (>85%)”. Besides, in assay [2], the IC50 is more than 10 µM.
In assay [2], `COc1ccc(NS(=O)(=O)c2c(F)c(F)c(F)c(F)c2Oc2ccc(F)cc2)cc1F` [Compound I-80, 2,3,4,5-tetrafluoro-N-(3-fluoro-4-methoxyphenyl)-6-(4-fluorophenoxy)benzenesulfonamide] came in with an IC50 of 0.1 to 1 µM.
For `O=S(=O)(Nc1ccccc1)c1c(F)c(F)c(F)c(F)c1OC1CC1` [Compound I-95, 2-cyclopropoxy-3,4,5,6-tetrafluoro-N-phenylbenzenesulfonamide], the concentration for half-maximal inhibition (IC50) in assay [2] lay in the range of 1 to 10 µM.
